For the test, the target named is T1, H. sapiens SLC2A9 variant 2 (GLUT9B) (Homo sapiens, UniProt Q9NRM0).
T1 sequence (Q9NRM0 1-511 isoform Q9NRM0-2): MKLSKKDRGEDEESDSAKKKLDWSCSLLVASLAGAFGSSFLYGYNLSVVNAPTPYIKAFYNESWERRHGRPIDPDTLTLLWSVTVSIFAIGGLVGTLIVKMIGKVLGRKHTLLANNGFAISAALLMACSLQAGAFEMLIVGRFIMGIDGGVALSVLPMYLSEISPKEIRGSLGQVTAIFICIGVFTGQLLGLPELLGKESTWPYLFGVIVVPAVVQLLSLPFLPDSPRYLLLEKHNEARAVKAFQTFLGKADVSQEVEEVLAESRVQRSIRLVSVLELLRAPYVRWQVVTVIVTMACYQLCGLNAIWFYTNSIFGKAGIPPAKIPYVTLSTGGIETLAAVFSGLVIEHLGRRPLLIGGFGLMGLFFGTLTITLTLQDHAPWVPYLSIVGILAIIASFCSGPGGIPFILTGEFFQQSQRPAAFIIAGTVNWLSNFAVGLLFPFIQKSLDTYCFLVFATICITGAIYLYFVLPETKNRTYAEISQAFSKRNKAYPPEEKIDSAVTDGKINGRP
The experiment in a line: GLUT9 functional assay: uric acid uptake in HEK293T cells, allantoin formation by MS/MS as proxy of GLUT9B inhibition. In kind it is cell-based. The conditions noted are these: HEK293T cells stably expressing GLUT9B and transiently A. oryzae uricase, uric acid 0.3 mM, 37° C. In outline: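 Inhibition of GLUT9B-mediated urate uptake read as reduced allantoin formation, measured by MS/MS against allantoin standards in HEK293T matrix with log-logistic fitting. Stable GLUT9B HEK293T cells carrying transfected A. oryzae uricase were incubated 15 or 60 min at 37° C with uric acid at Km (0.3 mM), pH 7.4 gluconate buffer.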

The mark [1] stands for this setting: 15 minute assay, read-out: 15 min IC50.
The mark [2] stands for this setting: 60 minute assay, read-out: 60 min IC50.

Where two headings read alike, the source gives them in different places. Some results are limits rather than exact numbers.

Consider `O=C(O)C1CCN(c2nc(CCCC(F)(F)F)cnc2-c2cnc3occc3c2)CC1` [Compound 116, 1-(3-(furo[2,3-b]pyridin-5-yl)-6-(4,4,4-trifluorobutyl)pyrazin-2-yl)piperidine-4-carboxylic acid], for which the IC50 (usually the concentration needed to halve the response being measured) under setting [1] is less than 500 nM.

For `COCCCc1cnc(-c2ccc3c(c2)OCO3)c(N2CC3(CC(C(=O)O)C3)C2)c1` [Compound 250, 2-(2-(benzo[d][1,3]dioxol-5-yl)-5-(3-methoxypropyl)pyridin-3-yl)-2-azaspiro[3.3]heptane-6-carboxylic acid], the IC50 under setting [2] is more than 2000 nM. For the molecule `COCCCc1cnc(-c2cnn3c2CCCC3)c(N2CCC(C(=O)O)CC2)n1` [Compound 206, 1-(6-(3-methoxypropyl)-3-(4,5,6,7-tetrahydropyrazolo[1,5-a]pyridin-3-yl)pyrazin-2-yl)piperidine-4-carboxylic acid], the concentration for half-maximal inhibition (IC50) under setting [2] is more than 2000 nM. For `O=C1COc2ccc(-c3ncc(CCCC(F)(F)F)nc3N3CCC(C(=O)O)CC3)cc2N1` [Compound 115, 1-(3-(3-oxo-3,4-dihydro-2H-benzo[b][1,4]oxazin-6-yl)-6-(4,4,4-trifluorobutyl)pyrazin-2-yl)piperidine-4-carboxylic acid], under setting [1], the IC50 was more than 2000 nM. For the molecule `O=C(O)CCC1CN(c2nc(CCC(F)(F)F)cnc2-c2cc(F)c3occc3c2)C1` [Compound 89, 3-(1-(3-(7-fluorobenzofuran-5-yl)-6-(3,3,3-trifluoropropyl)pyrazin-2-yl)azetidin-3-yl)propanoic acid], the IC50 under setting [1] lay in the range of 500 to 2000 nM. As for `COCCCc1cnc(-c2cc(F)c3c(c2)OCO3)c(N2CCCC(C(=O)O)CC2)c1` (centres unmarked) [Compound 246, 1-(2-(7-fluorobenzo[d][1,3]dioxol-5-yl)-5-(3-methoxypropyl)pyridin-3-yl)azepane-4-carboxylic acid], under setting [2], the IC50 is less than 500 nM.

With `COCCOc1ccc(-c2ncc(CCC(F)(F)C(F)(F)F)nc2N2CCC(C(=O)O)CC2)cc1` [Compound 125, 1-(3-(4-(2-methoxyethoxy)phenyl)-6-(3,3,4,4,4-pentafluorobutyl)pyrazin-2-yl)piperidine-4-carboxylic acid], the IC50 under setting [1] fell in the range of 500 to 2000 nM. Turning to `COCCCc1cnc(-c2cnc3c(c2)ncn3C)c(N2CCC(C(=O)O)CC2)n1` [Compound 219, 1-(6-(3-methoxypropyl)-3-(3-methyl-3H-imidazo[4,5-b]pyridin-6-yl)pyrazin-2-yl)piperidine-4-carboxylic acid], the IC50 under setting [2] is more than 2000 nM. As to `CCCCc1cnc(-c2ccc(OC)cc2)c(-c2ncc(C(=O)O)s2)c1` [Compound 25, 2-(5-butyl-2-(4-methoxyphenyl)pyridin-3-yl)thiazole-5-carboxylic acid], under setting [1], the IC50 is more than 2000 nM. Turning to `COCCCc1cnc(-c2cnn3c2OCCC3)c(N2CCC(C(=O)O)CC2)n1` [Compound 209, 1-(3-(6,7-dihydro-5H-pyrazolo[5,1-b][1,3]oxazin-3-yl)-6-(3-methoxypropyl)pyrazin-2-yl)piperidine-4-carboxylic acid], the IC50 under setting [2] was more than 2000 nM. Consider `CCCCc1cnc(-c2ccc(OC)cc2)c(N2CCc3c(C(=O)O)csc3C2)n1` [Compound 41, 6-(6-butyl-3-(4-methoxyphenyl)pyrazin-2-yl)-4,5,6,7-tetrahydrothieno[2,3-c]pyridine-3-carboxylic acid], for which the concentration for half-maximal inhibition (IC50) under setting [1] fell in the range of 500 to 2000 nM. Still for that read-out and setting: under `COCCOc1ccc(-c2ncc(COCC(F)(F)F)nc2N2CCC(c3nn[nH]n3)CC2)cc1` [Compound 68, 3-(4-(2H-tetrazol-5-yl)piperidin-1-yl)-2-(4-(2-methoxyethoxy)phenyl)-5-((2,2,2-trifluoroethoxy)methyl)pyrazine] stands more than 2000 nM. `COCCOc1ccc(-c2ncc(CCCC(F)F)nc2N2CCC(C(=O)O)CC2)cc1` [Compound 145, 1-(6-(4,4-difluorobutyl)-3-(4-(2-methoxyethoxy)phenyl)pyrazin-2-yl)piperidine-4-carboxylic acid]: under setting [1], the IC50 is less than 500 nM.

Turning to `CCCCc1cnc(-c2cnc(OC)s2)c(N2CCC(C(=O)O)CC2)n1` [Compound 44, 1-(6-butyl-3-(2-methoxythiazol-5-yl)pyrazin-2-yl)piperidine-4-carboxylic acid], the IC50 under setting [1] was more than 2000 nM. On the same count and under the same terms, under `COCc1cnc(-c2cc(F)c3ccn(C)c3c2)c(N2CCC(C(=O)O)CC2)n1` [Compound 52, 1-(3-(4-fluoro-1-methyl-1H-indol-6-yl)-6-(methoxymethyl)pyrazin-2-yl)piperidine-4-carboxylic acid] stands less than 500 nM; under `CCCCc1cnc(-c2ccc(OC)cc2)c(-c2csc(C(=O)O)c2)c1` [Compound 19, 4-(5-butyl-2-(4-methoxyphenyl)pyridin-3-yl)thiophene-2-carboxylic acid], 500 to 2000 nM. Same read-out and setting: under `O=C(O)C1CCN(c2nc(COCC(F)(F)F)cnc2-c2cnc3occc3c2)CC1` [Compound 64, 1-(3-(furo[2,3-b]pyridin-5-yl)-6-((2,2,2-trifluoroethoxy)methyl)pyrazin-2-yl)piperidine-4-carboxylic acid] stands more than 2000 nM. With `COCCCc1cnc(-c2ccc3cncn3c2)c(N2CCC(C(=O)O)CC2)n1` [Compound 207, 1-(3-(imidazo[1,5-a]pyridin-6-yl)-6-(3-methoxypropyl)pyrazin-2-yl)piperidine-4-carboxylic acid], under setting [2], the IC50 was more than 2000 nM. As for `O=C(O)C1CCN(c2nc(CCC(F)(F)C(F)(F)F)cnc2-c2ccc3occc3c2)CC1` [Compound 124, 1-(3-(benzofuran-5-yl)-6-(3,3,4,4,4-pentafluorobutyl)pyrazin-2-yl)piperidine-4-carboxylic acid], the IC50 under setting [1] is less than 500 nM. As for `COCCOc1ccc(-c2ncc(CCC(F)(F)F)nc2N2CCC(C(=O)NS(C)(=O)=O)CC2)cc1` [Compound 70, 1-(3-(4-(2-methoxyethoxy)phenyl)-6-(3,3,3-trifluoropropyl)pyrazin-2-yl)-N-(methylsulfonyl)piperidine-4-carboxamide], the 50% inhibitory concentration (IC50) under setting [1] is 500 to 2000 nM. On the same count and under the same terms, next, `CCCCc1cnc(-c2ccc(OCCOC)c(F)c2)c(N2CCC(C(=O)O)CC2)n1` [Compound 37, 1-(6-butyl-3-(3-fluoro-4-(2-methoxyethoxy)phenyl)pyrazin-2-yl)piperidine-4-carboxylic acid]: less than 500 nM. Consider `COCCCc1cnc(-c2cc(Cl)c3occc3c2)c(N2CCC(C(=O)O)CC2)n1` [Compound 224, 1-(3-(7-chlorobenzofuran-5-yl)-6-(3-methoxypropyl)pyrazin-2-yl)piperidine-4-carboxylic acid], for which, under setting [2], the half-inhibitory concentration (IC50) was less than 500 nM. `CCCCc1cnc(-c2ccc(OC)cc2)c(-c2ccc(C(=O)O)nc2)c1` [Compound 18, 5′-butyl-2′-(4-methoxyphenyl)-[3,3′-bipyridine]-6-carboxylic acid]: the half-inhibitory concentration (IC50) under setting [1] was more than 2000 nM. For the molecule `COCCCc1cnc(-c2ccc(F)c(F)c2)c(N2CCC(C(=O)O)CC2)n1` [Compound 255, 1-(3-(3,4-difluorophenyl)-6-(3-methoxypropyl)pyrazin-2-yl)piperidine-4-carboxylic acid], under setting [2], the IC50 lay within 500 to 2000 nM. As for `CCCCc1cnc(-c2ccc(OC)cc2)c(N2CCC(C(=O)O)CC2)n1` [Compound 3, 1-(6-Butyl-3-(4-Methoxyphenyl)Pyrazin-2-yl)Piperidine-4-Carboxylic Acid], the IC50 under setting [1] was less than 500 nM and the IC50 under setting [2] is less than 500 nM. Regarding `COCc1cnc(-c2cc(F)c3occc3c2)c(N2CCC(C(=O)O)CC2)n1` [Compound 49, 1-(3-(7-fluorobenzofuran-5-yl)-6-(methoxymethyl)pyrazin-2-yl)piperidine-4-carboxylic acid], the IC50 under setting [1] lay within 500 to 2000 nM. Turning to `COCCCc1cnc(-c2cc(C(F)(F)F)c3occc3c2)c(N2CCC(C(=O)O)CC2)n1` [Compound 237, 1-(6-(3-methoxypropyl)-3-(7-(trifluoromethyl)benzofuran-5-yl)pyrazin-2-yl)piperidine-4-carboxylic acid], under setting [1], the IC50 was more than 2000 nM. On to `O=C(O)C1CCN(c2nc(CCCC(F)(F)F)cnc2-c2ccc3c(c2)NCCO3)CC1` [Compound 114, 1-(3-(3,4-dihydro-2H-benzo[b][1,4]oxazin-6-y)-6-(4,4,4-trifluorobutyl)pyrazin-2-yl)piperidine-4-carboxylic acid], for which the IC50 under setting [1] fell in the range of 500 to 2000 nM. The same measure, in the same setting: under `CC(F)(F)CCc1cnc(-c2ccc3occc3c2)c(N2CCC(C(=O)O)CC2)n1` [Compound 134, 1-(3-(benzofuran-5-yl)-6-(3,3-difluorobutyl)pyrazin-2-yl)piperidine-4-carboxylic acid] stands less than 500 nM. As to `COCCCc1cnc(-c2ccc3c(c2)CCCS3(=O)=O)c(N2CCC(C(=O)O)CC2)n1` [Compound 234, 1-(3-(1,1-dioxidothiochroman-6-yl)-6-(3-methoxypropyl)pyrazin-2-yl)piperidine-4-carboxylic acid], the IC50 under setting [2] was more than 2000 nM. On the same count and under the same terms, next, `COCCCc1cnc(-c2ccc3c(c2)OCO3)c(N2CCC(C(=O)O)CC2)c1` [Compound 191, 1-(2-(benzo[d][1,3]dioxol-5-yl)-5-(3-Methoxypropyl)Pyridin-3-yl)piperidine-4-carboxylic acid]: less than 500 nM.
